From patent US20240166617A1, “PHOSPHOINOSITIDE 3 KINASE BETA INHIBITORS AND COMPOSITIONS AND METHODS THEREOF” (Geode Therapeutics Inc., priority 2021, published 2024)
Read-outs that look alike come from different tables or passages of the source.

How the values were obtained:
[1] = test system: phosphorylation of AKT in HCC70 cells; assay: Cellular assay: phosphorylation of AKT in HCC70 cells (western blotting); assay type: cell-based; settings: Homo sapiens, HCC70, 1 h
Procedure: Cellular activity of PI3Kβ inhibitors was determined by quantifying the phosphorylation of AKT in HCC70 cells. AKT phosphorylated at Ser473 and Thr308 were measured using western blotting and specific primary antibodies from Cell Signaling (CST), Danvers, MA. On day 1, HCC70 cells (ATCC #CRL-2315) were seeded into Falcon 12-well cell Culture Plate (Corning #353043) at 100,000 cells per well, in 1 ml complete culture medium (RPMI-1640, GIBCO #11875093) containing 10% heat inactivated FBS (GIBCO #10438026), 1% Pen-Strep (GIBCO #15140122) and incubated at 37° AC, 5% CO2 overnight. On day 2, compound (500 nM) or DMSO (0.1%, Sigma Aldrich #8418) was added and cells were further incubated for 60 min at 37° AC, 5% CO2 in a total volume of 1 ml fresh medium.
At the end of the cell treatment period, media were removed by aspiration and adherent cells were lysed in 100 uL RIPA buffer (Sigma Aldrich #R0278). Equal volume (15 uL) of proteins was resolved by SDS-PAGE and transferred to PVDF (Millipore #IPFL00010) membrane for immunoblot analysis. Primary antibodies to the following proteins were used for immunoblotting: phosphor-AKT (Ser473) (CST #4060), phosphor-AKT (Thr308) (CST #2965), total AKT (CST #9272). Secondary goat anti-rabbit IgG fluorophore conjugated antibody (Invitrogen #A21109) was used to visualize the indicated proteins on an Odyssey CLx imaging system (Li-Cor). Quantification of band intensities was performed using Odyssey 3.0 software. Inhibition of Akt activity was calculated by band intensities using the formula: […]
Index was evaluated by % of AI. Data represent Index+(20˜60%), ++(60%˜80%), +++(80%˜90%), and ++++>90%.

PIK3Cb_h = target: T1, PIK3Cb_h (Homo sapiens, UniProt P42338); assay: Enzyme binding assay (KINOMEscan); settings: Eurofins DiscoveRx
T1 construct: purchased Eurofins DiscoveRx Corporation
Procedure: Kinase enzyme binding affinities of compounds disclosed herein were determined using the KINOMEscan technology performed by Eurofins DiscoveRx Corporation, San Diego, California, USA (www.eurofinsdiscoveryservices.com). Table 2 reports the obtained PIK3β Kd values (nM) of, with the PIK3β Kd being the inhibitor binding constant. Table 3 reports the obtained Kd values (nM), with the Kd being the inhibitor binding constant: […]

[2] = HCC70 cells, compound 500 nM, 60 min, inhibition of Akt activity from band intensities, read-out: Index of AI (HCC70) p-AKT Thr 308
[3] = HCC70 cells, compound 500 nM, 60 min, inhibition of Akt activity from band intensities, read-out: Index of AI (HCC70) p-AKT ser 473

T1 sequence (P42338 whole entry): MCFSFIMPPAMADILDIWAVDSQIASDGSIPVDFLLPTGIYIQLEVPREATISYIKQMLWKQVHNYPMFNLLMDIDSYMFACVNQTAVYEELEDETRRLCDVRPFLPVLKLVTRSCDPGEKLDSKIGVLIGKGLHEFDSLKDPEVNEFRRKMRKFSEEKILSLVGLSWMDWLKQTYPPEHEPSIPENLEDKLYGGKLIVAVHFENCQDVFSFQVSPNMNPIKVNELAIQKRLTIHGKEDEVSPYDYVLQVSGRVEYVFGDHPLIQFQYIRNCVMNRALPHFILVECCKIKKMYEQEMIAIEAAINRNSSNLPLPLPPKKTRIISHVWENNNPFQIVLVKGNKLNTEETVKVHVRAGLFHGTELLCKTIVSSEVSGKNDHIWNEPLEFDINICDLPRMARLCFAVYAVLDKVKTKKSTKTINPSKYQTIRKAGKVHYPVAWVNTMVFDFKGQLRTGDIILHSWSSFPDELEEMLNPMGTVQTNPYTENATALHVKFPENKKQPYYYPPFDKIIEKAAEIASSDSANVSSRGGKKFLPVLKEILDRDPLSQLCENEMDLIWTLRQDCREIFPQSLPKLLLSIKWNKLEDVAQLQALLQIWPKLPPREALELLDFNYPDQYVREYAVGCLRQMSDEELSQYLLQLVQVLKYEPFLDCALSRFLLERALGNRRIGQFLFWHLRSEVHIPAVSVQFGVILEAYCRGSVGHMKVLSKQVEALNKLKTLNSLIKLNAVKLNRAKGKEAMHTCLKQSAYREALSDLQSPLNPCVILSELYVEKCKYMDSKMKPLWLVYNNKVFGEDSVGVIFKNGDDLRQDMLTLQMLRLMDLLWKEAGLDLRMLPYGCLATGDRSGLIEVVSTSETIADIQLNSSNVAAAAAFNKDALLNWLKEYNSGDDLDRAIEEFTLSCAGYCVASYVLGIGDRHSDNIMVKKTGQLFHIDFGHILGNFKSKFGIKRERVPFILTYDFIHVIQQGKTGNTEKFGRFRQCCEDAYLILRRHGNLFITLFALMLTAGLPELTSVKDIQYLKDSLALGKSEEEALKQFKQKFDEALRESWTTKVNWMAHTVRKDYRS

| SMILES | inhibition at 0.5 µM [1, 2] [%] | inhibition at 0.5 µM [1, 3] [%] | Kd (PIK3Cb_h) [nM] | inhibition at 0.5 µM ([1]; read-out: Index of AI (HCC70) p-AKT Thr 308) [%] | inhibition at 0.5 µM ([1]; read-out: Index of AI (HCC70) p-AKT ser 473) [%] |
| --- | --- | --- | --- | --- | --- |
| CC(Nc1cc(F)cc(F)c1)c1cc(NS(C)(=O)=O)cc2c(=O)cc(N3CCOCC3)oc12 (stereo not shown) [Compound 13, N-(8-(1-((3,5-difluorophenyl)amino)ethyl)-2-morpholino-4-oxo-4H-chromen-6-yl)methanesulfonamide] | 80 to 90 | 80 to 90 | 0.14 |  |  |
| CC1Cc2c(F)cc(F)cc2N1C(C)c1cc(C(=O)N(C)C)cc2c(=O)cc(N3CCOCC3)oc12 (stereo not shown) [Compound 38, 8-(1-(4,6-difluoro-2-methylindolin-1-yl)ethyl)-N,N-dimethyl-2-morpholino-4-oxo-4H-chromene-6-carboxamide] | > 90 | > 90 | 0.52 |  |  |
| CN(C)C(=O)c1cc(CN2CC(C)(C)c3c(F)cc(F)cc32)c2oc(N3CCOCC3)cc(=O)c2c1 [Compound 34, 8-((4,6-difluoro-3,3-dimethylindolin-1-yl)methyl)-N,N-dimethyl-2-morpholino-4-oxo-4H-chromene-6-carboxamide] | 80 to 90 | 80 to 90 | 0.37 |  |  |
| O=C(c1cc(CN2CCc3c(F)cc(F)cc32)c2oc(N3CCOCC3)cc(=O)c2c1)N1CCCC1 [Compound 42, 8-((4,6-difluoroindolin-1-yl)methyl)-2-morpholino-6-(pyrrolidine-1-carbonyl)-4H-chromen-4-one] | > 90 | > 90 | 0.26 |  |  |
| CC(Nc1cc(F)cc(F)c1)c1cc(C(=O)N2CC[C@H](N(C)C)C2)cc2c(=O)cc(N3CCOCC3)oc12 (stereo partly drawn) [Compound 30, 8-(1-((3,5-difluorophenyl)amino)ethyl)-6-((S)-3-(dimethylamino)pyrrolidine-1-carbonyl)-2-morpholino-4H-chromen-4-one] | 80 to 90 | 80 to 90 | 0.32 |  |  |
| C[C@@H](Nc1cc(F)cc(F)c1)c1cc(C(=O)N2CC[C@H](N(C)C)C2)cn2c(=O)cc(N3CCOCC3)nc12 [Compound 51, 9-((R)-1-((3,5-difluorophenyl)amino)ethyl)-7-((S)-3-(dimethylamino)pyrrolidine-1-carbonyl)-2-morpholino-4H-pyrido[1,2-a]pyrimidin-4-one] | > 90 | > 90 | 0.12 |  |  |
| CC(Nc1cc(F)cc(F)c1)c1cc(NC(=O)C2CCCC2)cc2c(=O)cc(N3CCOCC3)oc12 (stereo not shown) [Compound 12, N-(8-(1-((3,5-difluorophenyl)amino)ethyl)-2-morpholino-4-oxo-4H-chromen-6-yl)cyclopentanecarboxamide] | > 90 | > 90 | 0.55 |  |  |
| CC(C)NC(=O)c1cc(CN2CCc3c(F)cc(F)cc32)c2oc(N3CCOCC3)cc(=O)c2c1 [Compound 81, 8-((4,6-difluoroindolin-1-yl)methyl)-N-isopropyl-2-morpholino-4-oxo-4H-chromene-6-carboxamide] | 60 to 80 | 60 to 80 |  |  |  |
| CN(C)C(=O)c1cc(CN2CCc3cccc(Cl)c32)c2oc(N3CCOCC3)cc(=O)c2c1 [Compound 36, 8-((7-chloroindolin-1-yl)methyl)-N,N-dimethyl-2-morpholino-4-oxo-4H-chromene-6-carboxamide] | > 90 | > 90 |  |  |  |
| CC(Nc1cccc(F)c1F)c1cc(C(=O)N2CC[C@@H](N(C)C)C2)cn2c(=O)cc(N3CCOCC3)nc12 (stereo partly drawn) [Compound 95, 9-(1-((2,3-difluorophenyl)amino)ethyl)-7-((R)-3-(dimethylamino)pyrrolidine-1-carbonyl)-2-morpholino-4H-pyrido[1,2-a]pyrimidin-4-one] |  |  |  | 60 to 80 | 60 to 80 |
| CN(C)C(=O)c1cc(CN2c3cc(F)cc(F)c3CC2(C)C)c2oc(N3CCOCC3)cc(=O)c2c1 [Compound 66, 8-((4,6-difluoro-2,2-dimethylindolin-1-yl)methyl)-N,N-dimethyl-2-morpholino-4-oxo-4H-chromene-6-carboxamide] | 80 to 90 | 80 to 90 |  |  |  |
| CN1CCC(NC(=O)c2cc(CN3CCc4c(F)cc(F)cc43)c3oc(N4CCOCC4)cc(=O)c3c2)CC1 [Compound 82, 8-((4,6-difluoroindolin-1-yl)methyl)-N-(1-methylpiperidin-4-yl)-2-morpholino-4-oxo-4H-chromene-6-carboxamide] | 80 to 90 | 80 to 90 |  |  |  |
| CCN(CC)C(=O)c1cc(CN2CCc3c(F)cc(F)cc32)c2oc(N3CCOCC3)cc(=O)c2c1 [Compound 78, 8-((4,6-difluoroindolin-1-yl)methyl)-N,N-diethyl-2-morpholino-4-oxo-4H-chromene-6-carboxamide] | 80 to 90 | 80 to 90 |  |  |  |
| CC(Nc1cc(F)cc(F)c1)c1cc(C(=O)N2CC3(C2)CS(=O)(=O)C3)cc2c(=O)cc(N3CCOCC3)oc12 (stereo not shown) [Compound 28, 8-(1-((3,5-difluorophenyl)amino)ethyl)-6-(2,2-dioxido-2-thia-6-azaspiro[3.3]heptane-6-carbonyl)-2-morpholino-4H-chromen-4-one] | 60 to 80 | 60 to 80 |  |  |  |
| C[C@@H]1CN(c2cc(=O)n3cc(C(=O)N(C)C)cc(CN4CCc5c(F)cccc54)c3n2)CCO1 [Compound 101, (R)-9-((4-fluoroindolin-1-yl)methyl)-N,N-dimethyl-2-(2-methylmorpholino)-4-oxo-4H-pyrido[1,2-a]pyrimidine-7-carboxamide] | > 90 | > 90 |  |  |  |
| C[C@H]1Cc2c(F)cc(F)cc2N1Cc1cc(C(=O)N(C)C)cc2c(=O)cc(N3CCOCC3)oc12 (single isomer, unassigned) [Compound 64] | > 90 | > 90 |  |  |  |
| CN(C)C(=O)c1cc(CN2CCc3c(F)ccc(F)c32)c2nc(N3CCOCC3)cc(=O)n2c1 [Compound 99, 9-((4,7-difluoroindolin-1-yl)methyl)-N,N-dimethyl-2-morpholino-4-oxo-4H-pyrido[1,2-a]pyrimidine-7-carboxamide] | 80 to 90 | 80 to 90 |  |  |  |
| CCOc1cc(CNc2cc(F)cc(F)c2)c2oc(N3CCOCC3)cc(=O)c2c1 [Compound 4, 8-(((3,5-difluorophenyl)amino)methyl)-6-ethoxy-2-morpholino-4H-chromen-4-one] | 60 to 80 | 60 to 80 |  |  |  |
| Cc1cc(CN2c3cc(F)cc(F)c3CC2C)c2nc(N3CCOCC3)cc(=O)n2c1 (stereo not shown) [Compound 55, 9-((4,6-difluoro-2-methylindolin-1-yl)methyl)-7-methyl-2-morpholino-4H-pyrido[1,2-a]pyrimidin-4-one] | 20 to 60 | 20 to 60 |  |  |  |
| CN(C)C(=O)c1cc(CN2CCc3c(Cl)ccc(F)c32)c2nc(N3CCOCC3)cc(=O)n2c1 [Compound 100, 9-((4-chloro-7-fluoroindolin-1-yl)methyl)-N,N-dimethyl-2-morpholino-4-oxo-4H-pyrido[1,2-a]pyrimidine-7-carboxamide] | 80 to 90 | 80 to 90 |  |  |  |
| CN(C)C1CCN(C(=O)c2cc(CN3CCc4c(F)cc(F)cc43)c3oc(N4CCOCC4)cc(=O)c3c2)C1 (stereo not shown) [Compound 43, 8-((4,6-difluoroindolin-1-yl)methyl)-6-(3-(dimethylamino)pyrrolidine-1-carbonyl)-2-morpholino-4H-chromen-4-one] | 80 to 90 | 80 to 90 |  |  |  |
